Laboratory results from patent publication US20070078127A1, “Control of arthropods in animals” (AVENTIS CROPSCIENCE S.A., priority 1999, published 2007).

Assays:
[1] = test system: cat fleas (Ctenocephalides felis); test: control of flea on cat; assay type: in vivo; details: cats, 20 mg/kg, 30 mg/mL in 1:1 dimethyl sulfoxide/corn oil; counts versus placebo at 1, 9, 16, 23, 30 days; satisfactory in any of the three areas, for a period ranging from eight to thirty days
Source text: (§1) Cats are only infested with fleas.

[2] = test system: cat fleas (Ctenocephalides felis); test: control of flea on dog; assay type: in vivo; details: dogs, 10 mg/kg, 30 mg/mL in 1:1 dimethyl sulfoxide/corn oil; counts versus placebo at 1, 9, 16, 23, 30 days; satisfactory in any of the three areas, for a period ranging from eight to thirty days
Source text: as §1

[3] = test system: ticks (Rhipicephalus sanguineus); test: control of tick on dog; assay type: in vivo; details: dogs, 10 mg/kg, 30 mg/mL in 1:1 dimethyl sulfoxide/corn oil; counts versus placebo at 1, 9, 16, 23, 30 days; satisfactory in any of the three areas, for a period ranging from eight to thirty days
Source text: as §1

[4] = side-effects in treated dogs and cats; details: dogs 10 mg/kg, cats 20 mg/kg; period ranging from eight to thirty days
Experimental: The compounds 1-(2,6-dichloro-4-trifluoromethylphenyl)-3-cyano-4-trifluromethylthio-5-hydroxypyrazole, 1-(2,6-dichloro-4-trifluoromethylphenyl)-3-cyano-4-trifluoromethylsulfinyl-5-hydroxypyrazole and 1-(2,6-dichloro-4-trifluoromethylphenyl)-3-cyano-4-trifluoromethylsulfonyl-5-hydroxypyrazole are formulated as 30 mg/mL formulations in a 1:1 volume/volume solution of dimethyl sulfoxide and corn oil. Using this formulation, mixed breed dogs and cats are treated at a rate of 10 mg of the compound per kg (mg/kg)of body weight of the dog and 20 mg/kg of the cat treated. The animals are fasted for at least 8 hours prior to treatment, fed half of the daily ration immediately prior to treatment, then allowed access to the remainder of the daily ration immediately following treatment.
All dogs are infested with cat fleas (Ctenocephalides felis) and with ticks (Rhipicephalus sanguineus) 1 day prior to administration of the compound. Cats are only infested with fleas. […] At 1, 9, 16, 23 and 30 days after treatment the control of fleas and ticks in treated dogs and cats is determined versus a group of infested dogs and cats which receive a placebo consisting of a 1:1 volume/volume solution of dimethyl sulfoxide and corn oil. To determine the efficacies of the compounds, the arthropods are combed from the animnals and counted.

| SMILES | control of flea on cat [1] | control of flea on dog [2] | control of tick on dog [3] | side-effect [4] |
| --- | --- | --- | --- | --- |
| N#Cc1nn(-c2c(Cl)cc(C(F)(F)F)cc2Cl)c(O)c1SC(F)(F)F [Compound 1-1, 1-(2,6-dichloro-4-trifluoromethylphenyl)-3-cyano-4-trifluoromethylsulfenyl-5-hydroxypyrazole] | Satisfactory results | Satisfactory results | Satisfactory results | – |
| N#Cc1nn(-c2c(Cl)cc(C(F)(F)F)cc2Cl)c(O)c1[S+]([O-])C(F)(F)F (centres unmarked) [Compound 1-3, 1-(2,6-dichloro-4-trifluoromethylphenyl)-3-cyano-4-trifluoromethylsulfinyl-5-hydroxypyrazole] | Satisfactory results | Satisfactory results | Satisfactory results | – |
| N#Cc1nn(-c2c(Cl)cc(C(F)(F)F)cc2Cl)c(O)c1S(=O)(=O)C(F)(F)F [Compound 1-5, 1-(2,6-dichloro-4-trifluoromethylphenyl)-3-cyano-4-trifluoromethylsulfonyl-5-hydroxypyrazole] | Satisfactory results | Satisfactory results | Satisfactory results | – |
| N#Cc1nn(-c2c(Cl)cc(C(F)(F)F)cc2Cl)c(O)c1SC(F)(F)Cl [Compound 1-9, 1-(2,6-dichloro-4-trifluoromethylphenyl)-3-cyano-4-chlorodifluoromethylsulfenyl-5-hydroxypyrazole] | Satisfactory results | Satisfactory results | Satisfactory results | without any significant side-effect |
| CCOc1c(SC(F)(F)F)c(C#N)nn1-c1c(Cl)cc(C(F)(F)F)cc1Cl [Compound 3-1, 1-(2,6-dichloro-4-trifluoromethylphenyl)-3-cyano-4-trifluoromethylsulfenyl-5-ethoxypyrazole] | Satisfactory results | Satisfactory results | Satisfactory results | – |
| CC(C)(C)C(=O)Oc1c(SC(F)(F)F)c(C#N)nn1-c1c(Cl)cc(C(F)(F)F)cc1Cl [Compound 3-10, 1-(2,6-dichloro-4-trifluoromethylphenyl)-3-cyano-4-trifluoromethylsulfenyl-5-trimethylacetoxypyrazole] | Satisfactory results | Satisfactory results | Satisfactory results | – |
| CN(C)C(=O)Oc1c(S(=O)(=O)C(F)(F)F)c(C#N)nn1-c1c(Cl)cc(C(F)(F)F)cc1Cl [Compound 19-1, 1-(2,6-dichloro-4-trifluorometylphenyl) -3-cyano-4-trifluormethylsulfonyl-5-N,N-dimethylcarbamyloxypyrazole] | Satisfactory results | Satisfactory results | Satisfactory results | without any significant side-effect |
